US20180282339A1 (OLON S.P.A., priority 2015, published 2018)

Settings: conditions not specified at this place, b45 (heating at 60-120 ° C. for 1-12 hours gives amorphous form)
Protocol: In particular the following tests have been made: • stability at 25° C./40% Relative Humidity for 7 days • stability at 40° C./75% Relative Humidity for 7 days • stability at 25° C./60% Relative Humidity for 7 days • stability at 60° C./40% Relative Humidity for 7 days

Which “solid form conversion in some conditions” value does the source give for `C=CC(=O)N1CCC[C@@H](n2nc(-c3ccc(Oc4ccccc4)cc3)c3c(N)ncnc32)C1` [Form L, 1-[(3R)-3-[4-amino-3-(4-phenoxyphenyl)-1H-pyrazolo[3,4-d]pyrimidin-1-yl]piperidin-1-yl]prop-2-en-1-one] here?
The value was “converts in Form A or in the amorphous form”.
